Measured values from patent publication EP0022117A2, “Metoclopramid resinate and medicament containing it” (Trenker, Ady, priority 1979, dated 1981).

Columns and labels:
[1] = plasma half-life in the rat; format: in vivo; conditions: chez le rat, read-out: demi-vie plasmatique
[2] = plasma half-life in the dog; format: in vivo; conditions: chez le chien, read-out: demi-vie plasmatique

- half-life [1]: 1 to 1.5 h
- half-life [2]: 1 to 1.5 h
Compound: CCN(CC)CCNC(=O)c1cc(Cl)c(N)cc1OC [Metoclopramide]
